Laboratory results published in ChEMBL document CHEMBL1201862, “PubChem BioAssay data set” (2004).
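A five-concentration, 48-hour dose response in 96-well plates underlies each endpoint, interpolated linearly between surrounding concentrations. The concentration for 50% growth inhibition is given as GI50.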 Active and inactive are the calls of the source. Cut-off read from the data, not from the text of the source: active = GI50 up to about 1.1 µM and inactive = higher.

Columns and labels:
Experiment in all cases: NCI anticancer screen, dose series, 48 h
MDA-MB-231 = system: MDA-MB-231
UACC-257 = system: UACC-257
RPMI-8226 = system: RPMI-8226
UACC-62 = system: UACC-62
HCT-116 = system: HCT-116
SF-268 = system: SF-268
OVCAR-5 = system: OVCAR-5
NCI-H23 = system: NCI-H23
SK-MEL-2 = system: SK-MEL-2
SN12C = system: SN12C
A498 = system: A498
SR = system: SR
TK-10 = system: TK-10
SF-295 = system: SF-295
COLO 205 = system: COLO 205
HCT-15 = system: HCT-15
NCI-H226 = system: NCI-H226
OVCAR-8 = system: OVCAR-8
K562 = system: K562
CCRF-CEM = system: CCRF-CEM
SK-MEL-28 = system: SK-MEL-28
MCF7 = system: MCF7
SW-620 = system: SW-620
PC-3 = system: PC-3
HL-60 = system: HL-60
NCI/ADR-RES = system: NCI/ADR-RES
SK-OV-3 = system: SK-OV-3
OVCAR-4 = system: OVCAR-4
OVCAR-3 = system: OVCAR-3
Hs-578T = system: Hs-578T
SNB-19 = system: SNB-19
UO-31 = system: UO-31
IGROV-1 = system: IGROV-1
HOP-62 = system: HOP-62
M14 = system: M14
MDA-MB-435 = system: MDA-MB-435
DU-145 = system: DU-145
NCI-H522 = system: NCI-H522
KM12 = system: KM12
U-251 = system: U-251
786-0 = system: 786-0
BT-549 = system: BT-549
MDA-N = system: MDA-N
HT-29 = system: HT-29
Malme-3M = system: Malme-3M
A549 = system: A549
HOP-92 = system: HOP-92
SF-539 = system: SF-539
MOLT-4 = system: MOLT-4
SNB-75 = system: SNB-75
RXF 393 = system: RXF 393
ACHN = system: ACHN
NCI-H460 = system: NCI-H460
EKVX = system: EKVX
CAKI-1 = system: CAKI-1
LOX IMVI = system: LOX IMVI
SK-MEL-5 = system: SK-MEL-5
HCC 2998 = system: HCC 2998

O=C(O)c1cc2cc(c1)/N=C/c1ccccc1OCc1cccc(n1)COc1ccccc1/C=N/2
GI50 (MDA-MB-231): > 25 µM (inactive)
GI50 (UACC-257): > 25 µM (inactive)
GI50 (RPMI-8226): 7.41 µM (inactive)
GI50 (UACC-62): 8.45 µM (inactive)
GI50 (HCT-116): 9.14 µM (inactive)
GI50 (SF-268): 13.2 µM (inactive)
GI50 (OVCAR-5): > 25 µM (inactive)
GI50 (NCI-H23): > 25 µM (inactive)
GI50 (SK-MEL-2): 23.8 µM (inactive)
GI50 (SN12C): 14.8 µM (inactive)
GI50 (A498): > 25 µM (inactive)
GI50 (SR): 6.38 µM (inactive)
GI50 (TK-10): 13.6 µM (inactive)
GI50 (SF-295): 6.24 µM (inactive)
GI50 (COLO 205): > 25 µM (inactive)
GI50 (HCT-15): 8.45 µM
GI50 (NCI-H226): 10.9 µM (inactive)
GI50 (OVCAR-8): > 25 µM (inactive)
GI50 (K562): 10.1 µM (inactive)
GI50 (CCRF-CEM): 9.71 µM (inactive)
GI50 (SK-MEL-28): 23.3 µM (inactive)
GI50 (MCF7): 6.79 µM (inactive)
GI50 (SW-620): 9.68 µM (inactive)
GI50 (PC-3): 24 µM (inactive)
GI50 (HL-60): 12.2 µM (inactive)
GI50 (NCI/ADR-RES): 5.93 µM (inactive)
GI50 (SK-OV-3): > 25 µM (inactive)
GI50 (OVCAR-4): 12.2 µM (inactive)
GI50 (OVCAR-3): 5.11 µM (inactive)
GI50 (Hs-578T): 4.94 µM (inactive)
GI50 (SNB-19): 17.3 µM (inactive)
GI50 (UO-31): > 25 µM (inactive)
GI50 (IGROV-1): 20.4 µM (inactive)
GI50 (HOP-62): > 25 µM (inactive)
GI50 (M14): 11.1 µM (inactive)
GI50 (MDA-MB-435): 3.78 µM (inactive)
GI50 (DU-145): > 25 µM (inactive)
GI50 (NCI-H522): > 25 µM (inactive)
GI50 (KM12): 13 µM (inactive)
GI50 (U-251): 7.66 µM (inactive)
GI50 (786-0): 10.6 µM (inactive)
GI50 (BT-549): 23.6 µM (inactive)
GI50 (MDA-N): 4.53 µM (inactive)
GI50 (HT-29): 19 µM (inactive)
GI50 (Malme-3M): 3.64 µM (inactive)
GI50 (A549): > 25 µM (inactive)
GI50 (HOP-92): 6.73 µM (inactive)
GI50 (SF-539): 8.17 µM (inactive)
GI50 (MOLT-4): 20 µM (inactive)
GI50 (SNB-75): > 25 µM (inactive)
GI50 (RXF 393): > 25 µM (inactive)
GI50 (ACHN): 23.2 µM (inactive)
GI50 (NCI-H460): > 25 µM (inactive)
GI50 (EKVX): > 25 µM (inactive)

COc1ccc(COC(=O)NNC(=O)C2CSC(c3ccccc3)N2C(C)=O)cc1 (configuration not stated)
GI50 (CAKI-1): > 100 µM (inactive)
GI50 (UACC-257): > 100 µM (inactive)
GI50 (RPMI-8226): > 100 µM (inactive)
GI50 (LOX IMVI): > 100 µM (inactive)
GI50 (UACC-62): > 100 µM (inactive)
GI50 (HCT-116): > 100 µM (inactive)
GI50 (SF-268): > 100 µM (inactive)
GI50 (SK-MEL-5): > 100 µM (inactive)
GI50 (OVCAR-5): > 100 µM (inactive)
GI50 (NCI-H23): > 100 µM (inactive)
GI50 (SK-MEL-2): > 100 µM (inactive)
GI50 (SN12C): > 100 µM (inactive)
GI50 (A498): > 100 µM (inactive)
GI50 (TK-10): > 100 µM (inactive)
GI50 (SF-295): > 100 µM (inactive)
GI50 (HCT-15): > 100 µM
GI50 (NCI-H226): > 100 µM (inactive)
GI50 (OVCAR-8): > 100 µM (inactive)
GI50 (K562): > 100 µM (inactive)
GI50 (CCRF-CEM): > 100 µM (inactive)
GI50 (MCF7): > 100 µM (inactive)
GI50 (SW-620): > 100 µM (inactive)
GI50 (PC-3): > 100 µM (inactive)
GI50 (HL-60): > 100 µM (inactive)
GI50 (NCI/ADR-RES): > 100 µM (inactive)
GI50 (SK-OV-3): > 100 µM (inactive)
GI50 (OVCAR-4): > 100 µM (inactive)
GI50 (OVCAR-3): > 100 µM (inactive)
GI50 (Hs-578T): > 100 µM (inactive)
GI50 (SNB-19): > 100 µM (inactive)
GI50 (UO-31): > 100 µM (inactive)
GI50 (IGROV-1): > 100 µM (inactive)
GI50 (HOP-62): > 100 µM (inactive)
GI50 (M14): > 100 µM (inactive)
GI50 (MDA-MB-435): > 100 µM (inactive)
GI50 (DU-145): > 100 µM (inactive)
GI50 (NCI-H522): > 100 µM (inactive)
GI50 (KM12): > 100 µM (inactive)
GI50 (U-251): > 100 µM (inactive)
GI50 (786-0): > 100 µM (inactive)
GI50 (BT-549): > 100 µM (inactive)
GI50 (MDA-N): > 100 µM (inactive)
GI50 (HT-29): > 100 µM (inactive)
GI50 (Malme-3M): > 100 µM (inactive)
GI50 (A549): > 100 µM (inactive)
GI50 (HCC 2998): > 100 µM (inactive)
GI50 (HOP-92): > 100 µM (inactive)
GI50 (SF-539): > 100 µM (inactive)
GI50 (MOLT-4): > 100 µM (inactive)
GI50 (SNB-75): > 100 µM (inactive)
GI50 (ACHN): > 100 µM (inactive)
GI50 (NCI-H460): > 100 µM (inactive)
GI50 (EKVX): > 100 µM (inactive)
